Columns and labels:
Assay in all cases: relative viability (nuclei count vs DMSO), 5 days (fraction); higher = more cells survive
[1] = compound: COC1=CC=C(C=C1)COC2=C(C=C(C=C2)CC3=CN=C(N=C3N)N)OC [GW-2580] + O=C(CCCCCCC(=O)Nc1ccccc1)NO [Vorinostat] (partner 1 µM)
Outline: (§1)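 For relative viability, nuclei counts in treated wells were divided by those in vehicle wells. Lung cancer cell lines had been pin-tool dosed in 1536-well plates the day after seeding and cultured for 5 days, then fixed and stained in one step (final 0.05% Triton X-100, 1% formaldehyde, 1 ug/ml Hoechst) and imaged at 4×. Doses were one drug alone or a fixed anchor-drug dose plus five library-drug doses (not always all listed) in √10 steps, and values are duplicate-plate medians.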

[2] = compound: Cc1cnc(Nc2ccc(OCCN3CCCC3)cc2)nc1Nc1cccc(S(=O)(=O)NC(C)(C)C)c1 [Fedratinib] + CC1(C)CCC(c2ccc(Cl)cc2)=C(CN2CCN(c3ccc(C(=O)NS(=O)(=O)c4ccc(N[C@H](CCN5CCOCC5)CSc5ccccc5)c(S(=O)(=O)C(F)(F)F)c4)cc3)CC2)C1 [Navitoclax] (partner 0.5 µM)
Outline: as §1

[3] = compound: Cc1cnc(Nc2ccc(OCCN3CCCC3)cc2)nc1Nc1cccc(S(=O)(=O)NC(C)(C)C)c1 [Fedratinib] + CS(=O)(=O)N1CCN(Cc2cc3nc(-c4cccc5[nH]ncc45)nc(N4CCOCC4)c3s2)CC1 [Pictilisib] (partner 1 µM)
Outline: as §1

[4] = compound: Cc1cnc(Nc2ccc(OCCN3CCCC3)cc2)nc1Nc1cccc(S(=O)(=O)NC(C)(C)C)c1 [Fedratinib] + C[C@]1(O)C[C@@H](c2nc(-c3ccc4ccc(-c5ccccc5)nc4c3)c3c(N)nccn32)C1 [Linsitinib] (partner 1 µM)
Outline: as §1

[5] = compound: COC1=CC=C(C=C1)COC2=C(C=C(C=C2)CC3=CN=C(N=C3N)N)OC [GW-2580] + COc1cccc2cc(-c3nc([C@H]4CC[C@H](C(=O)O)CC4)n4ncnc(N)c34)[nH]c12 [OSI-027] (partner 0.5 µM)
Outline: as §1

Cell Line	relative viability ([1]; first compound 0.08 µM)	relative viability ([1]; first compound 0.8 µM)	relative viability ([1]; first compound 2.53 µM)	relative viability ([1]; first compound 8 µM)	relative viability ([2]; first compound 0.1 µM)	relative viability ([2]; first compound 0.3162 µM)	relative viability ([2]; first compound 1 µM)	relative viability ([3]; first compound 0.1 µM)	relative viability ([3]; first compound 0.3162 µM)	relative viability ([3]; first compound 1 µM)	relative viability ([4]; first compound 0.1 µM)	relative viability ([4]; first compound 0.3162 µM)	relative viability ([4]; first compound 1 µM)	relative viability ([5]; first compound 0.08 µM)	relative viability ([5]; first compound 0.8 µM)	relative viability ([5]; first compound 2.53 µM)	relative viability ([5]; first compound 8 µM)
LXF-289	0.843	0.806	0.776	0.72	0.925	0.875	0.939	0.811	0.747	0.694	0.989	0.943	0.963	0.999	0.859	0.857	0.731
NCI-H358	0.754	0.816	0.631	0.984	–	–	–	0.319	0.395	0.26	0.565	0.597	0.53	0.944	0.817	0.667	0.742
NCI-H522	0.976	0.862	0.861	0.986	–	–	–	–	–	–	–	–	–	0.688	0.618	0.845	0.723
NCI-H650	0.512	0.502	0.349	0.416	–	–	–	–	0.701	0.727	–	0.994	0.596	0.55	0.585	0.465	0.518
NCI-H661	0.86	0.801	0.767	0.632	–	–	–	0.404	0.355	0.329	0.512	0.533	0.622	0.739	0.754	0.644	0.543
NCI-H1299	–	–	–	–	1.04	1.06	1.01	0.629	0.688	0.529	0.946	0.96	0.994	–	–	–	–
NCI-H1563	–	–	–	–	–	–	–	0.608	0.711	0.712	1.16	1.18	1.16	0.827	0.803	0.737	0.707
NCI-H1623	–	–	–	–	–	–	–	–	–	–	–	–	–	0.4	0.475	0.393	0.428
NCI-H1648	0.761	–	0.541	0.496	–	–	–	–	–	–	–	–	–	0.27	–	–	0.231
NCI-H1650	0.541	0.901	0.457	0.586	1.25	1.12	1.15	0.355	0.571	0.155	–	–	–	0.738	0.747	0.624	0.464
NCI-H1703	–	–	–	–	0.482	0.955	0.498	0.244	0.233	0.204	–	0.98	0.615	–	–	–	–
NCI-H1792	–	–	–	–	0.653	0.58	0.59	0.257	0.289	0.227	0.611	0.547	0.542	0.763	1.14	–	0.883
NCI-H2170	0.932	0.903	0.64	0.775	0.626	0.653	0.429	0.266	0.329	0.221	–	–	–	0.757	0.745	0.735	0.748
NCI-H2342	0.711	0.75	0.625	0.751	–	–	–	–	–	–	–	–	–	0.574	0.671	0.519	0.62
SW 900	0.53	0.517	0.419	0.528	–	–	–	–	–	–	–	–	–	0.69	0.693	0.569	0.75
